Experimental data reported in patent publication US7410974B2, “Halogenated Quinazolinyl nitrofurans as antibacterial agents” (Ulysses Pharmaceutical Products, Inc., priority 2003, dated 2008).
Converted amounts (≈) assume the structure as drawn. Read-outs that look alike come from different tables or passages of the source.

Legend:
S. aureus ATCC 29213 = assay: MIC broth microdilution (NCCLS); assay type: cell-based, Staphylococcus aureus
Procedure: (§1) Minimal Inhibitory Concentration (MIC) Determination. Bacteria (primary strain panel, TABLE 1). Susceptibility tests were performed following the recommendations from the National Committee for Clinical Standards (NCCLS). The MICs were determined by a broth microdilution technique using a final volume of 100 μl of cation-adjusted Mueller Hinton Broth (MHBCA) and a bacterial inoculum of 10^5-10^6 Colony Forming Units (CFU)/ml. The inocula were verified and precisely determined by applying 10-μl drops of 10-fold dilutions onto Triptic Soy Agar plates. The CFU were counted after an incubation of 24 h at 35° C. Any experiment showing an inoculum that was more or less than 10^5-10^6 CFU/ml was rejected. Control antibiotics and test compounds were prepared at a concentration equivalent to 2-fold the highest desired final concentration. Compounds were then diluted directly in the 96-well microtiter plates by serial 2-fold dilutions using a multichannel pipette. Microtiter plates were incubated during 24 h at 35° C. and growth was recorded by using a microtiterplate reader at 650 nm as well as by visual observation. The MIC was defined as the lowest concentration of compound yielding no visible growth. […] Fastidious bacteria. The medium used for Listeria monocytogenes, Neisseria meningitidis, and Campylobacter jejuni was MHBCA containing 2% laked horse blood. The medium used for Haemophilus influenzae and Branhamella (Moraxella) catarrhalis was HTM as recommended by the NCCLS. Cultures of these fastidious bacteria were incubated at 35° C. in a 5% CO2 atmosphere. […] The medium used for Bacteroides fragilis was Wilkins Chalgren broth and growth was allowed under an anaerobic atmosphere at 35° C. for 48 hours.

S. aureus MRSA COL = assay: MIC broth microdilution (NCCLS); assay type: cell-based, Staphylococcus aureus
Procedure: as §1, with “hours. […]” for “hours.”

[1] = system: S. epidermidis ATCC 12228; assay: MIC broth microdilution (NCCLS); assay type: cell-based, Staphylococcus epidermidis
Procedure: as §1

[2] = system: S. saprophyticus ATCC 15305; assay: MIC broth microdilution (NCCLS); assay type: cell-based, Staphylococcus saprophyticus
Procedure: as §1

E. faecalis ATCC 29212 = assay: MIC broth microdilution (NCCLS); assay type: cell-based, Enterococcus faecalis
Procedure: as §1

E. faecium ATCC 35667 = assay: MIC broth microdilution (NCCLS); assay type: cell-based, Enterococcus faecium
Procedure: as §1

E. coli ATCC 25922 = assay: MIC broth microdilution (NCCLS); assay type: cell-based, Escherichia coli
Procedure: as §1

S. typhimurium ATCC14028 = assay: MIC broth microdilution (NCCLS); assay type: cell-based, Salmonella typhimurium; conditions: Salmonella enterica; S. typhimurium ATCC14028; read-out: MIC
Procedure: as §1

A. baumannii ATCC 19606 = assay: MIC broth microdilution (NCCLS); assay type: cell-based, Acinetobacter baumannii
Procedure: as §1

[3] = system: Y. enterocolytica ATCC 23715; assay: MIC broth microdilution (NCCLS); assay type: cell-based, Yersinia enterocolytica
Procedure: as §1

M. smegmatis ATCC 19420 = assay: MIC broth microdilution (NCCLS), fastidious bacteria; assay type: cell-based, Mycobacterium smegmatis; conditions: Mycolicibacterium smegmatis, ATCC19420, read after 48 hours
Procedure: as §1

E. faecium VanA = assay: MIC broth microdilution, antibiotic resistant strain panel; assay type: cell-based; conditions: Enterococcus faecium
Procedure: as §1
(§2) Finally, compounds were also tested against populations of various clinical strains (antibiotic resistant strain panel, TABLE 1).

MRSA strain Sa211c = assay: as above; assay type: cell-based, Staphylococcus aureus; conditions: multi-resistant MRSA strain Sa211c
Procedure: as §1, §2

MRSA strain Sa212c = assay: as above; assay type: cell-based, Staphylococcus aureus; conditions: multi-resistant MRSA strain Sa212c
Procedure: as §1, §2

MRSA strain Sa220c = assay: as above; assay type: cell-based, Staphylococcus aureus; conditions: multi-resistant MRSA strain Sa220c
Procedure: as §1, §2

MRSA strain Sa224c = assay: as above; assay type: cell-based, Staphylococcus aureus; conditions: multi-resistant MRSA strain Sa224c
Procedure: as §1, §2

MRSA strain Sa228c = assay: as above; assay type: cell-based, Staphylococcus aureus; conditions: multi-resistant MRSA strain Sa228c
Procedure: as §1, §2

MRSA strain Sa248c = assay: as above; assay type: cell-based, Staphylococcus aureus; conditions: multi-resistant MRSA strain Sa248c
Procedure: as §1, §2

MRSA strain Sa249c = assay: as above; assay type: cell-based, Staphylococcus aureus; conditions: multi-resistant MRSA strain Sa249c
Procedure: as §1, §2

MRSA strain Sa253c = assay: as above; assay type: cell-based, Staphylococcus aureus; conditions: multi-resistant MRSA strain Sa253c
Procedure: as §1, §2

[4] = system: S. saprophyticus ATCC 15305; assay: Minimal Bactericidal Concentration (MBC); assay type: cell-based; conditions: Staphylococcus saprophyticus, ATCC15305
Procedure: Minimal Bactericidal Concentration (MBC). After the microtiter plates were read for the determination of the MIC, a 10-μl sample of each clear well (at least 5 wells without visible growth) was applied onto TSA plates for viable counts determination.
Petri dishes were incubated at 35° C. for exactly 24 h and bacterial colonies were counted.

MRSA strain Sa234c = assay: MIC broth microdilution, antibiotic resistant strain panel; assay type: cell-based, Staphylococcus aureus; conditions: multi-resistant MRSA strain Sa234c
Procedure: as §1, §2

[5] = Staphylococcus aureus, ATCC29213, S. aureus ATCC 29213, read-out: MIC
[6] = Staphylococcus aureus, MRSA, S. aureus MRSA COL, read-out: MIC
[7] = Staphylococcus epidermidis, ATCC12228, S. epidermidis ATCC 12228, read-out: MIC
[8] = Staphylococcus saprophyticus, ATCC15305, S. saprophyticus ATCC 15305, read-out: MIC
[9] = Enterococcus faecalis, ATCC29212, E. faecalis ATCC 29212, read-out: MIC
[10] = Enterococcus faecium, ATCC35667, E. faecium ATCC 35667, read-out: MIC
[11] = Staphylococcus aureus, read-out: MIC

NC(=O)N/N=C/c1ccc([N+](=O)[O-])o1 [Nitrofurazone]
MIC (S. aureus ATCC 29213; [5]): 16 µg/mL (≈ 80.8 µM)
MIC (S. aureus MRSA COL; [6]): 8 to 16 µg/mL (≈ 40.4 to 80.8 µM)
MIC [1, 7]: 8 µg/mL (≈ 40.4 µM)
MIC [2, 8]: 8 µg/mL (≈ 40.4 µM)
MIC (E. faecalis ATCC 29212; [9]): 64 µg/mL (≈ 323 µM)
MIC (E. faecium ATCC 35667; E. faecium ATCC 35667): >64 µg/mL
MIC (E. faecium ATCC 35667; [10]): 128 µg/mL (≈ 646 µM)
MIC (E. coli ATCC 25922; Escherichia coli, ATCC25922, E. coli ATCC 25922 (Reference), read-out: MIC): 8 to 16 µg/mL (≈ 40.4 to 80.8 µM)
MIC (S. typhimurium ATCC14028): 8 µg/mL (≈ 40.4 µM)
MIC (A. baumannii ATCC 19606; Acinetobacter baumannii, ATCC19606, read-out: MIC): 32 µg/mL (≈ 162 µM)
MIC ([3]; Yersinia, ATCC23715, read-out: MIC): 64 µg/mL (≈ 323 µM)
MIC (M. smegmatis ATCC 19420): 64 µg/mL (≈ 323 µM)
MIC (E. faecium VanA; multi-resistant E. faecium VanA, read-out: MIC): 64 µg/mL (≈ 323 µM)

Cc1onc(-c2ccccc2)c1C(=O)N[C@@H]1C(=O)N2[C@@H]1SC(C)(C)[C@@H]2C(=O)O [Oxacillin]
MIC (S. aureus ATCC 29213; [5]): 0.12 to 0.25 µg/mL (≈ 0.299 to 0.623 µM)
MIC (S. aureus MRSA COL; Staphylococcus aureus, MRSA): > 128 µg/mL
MIC (S. aureus MRSA COL; [6]): 512 µg/mL (≈ 1280 µM)
MIC [1, 7]: 0.12 µg/mL (≈ 0.299 µM)
MIC [2, 8]: 1 µg/mL (≈ 2.49 µM)
MIC (E. faecalis ATCC 29212; [9]): 8 to 16 µg/mL (≈ 19.9 to 39.9 µM)
MIC (E. faecium ATCC 35667; [10]): 32 µg/mL (≈ 79.7 µM)
MIC (MRSA strain Sa211c; [11]): 16 to 32 µg/mL (≈ 39.9 to 79.7 µM)
MIC (MRSA strain Sa212c; [11]): 16 µg/mL (≈ 39.9 µM)
MIC (MRSA strain Sa220c; [11]): 8 to 16 µg/mL (≈ 19.9 to 39.9 µM)
MIC (MRSA strain Sa224c; [11]): 32 to 64 µg/mL (≈ 79.7 to 159 µM)
MIC (MRSA strain Sa228c; [11]): 128 µg/mL (≈ 319 µM)
MIC (MRSA strain Sa248c; [11]): 512 µg/mL (≈ 1280 µM)
MIC (MRSA strain Sa249c; [11]): 512 µg/mL (≈ 1280 µM)
MIC (MRSA strain Sa253c; [11]): 1020 µg/mL (≈ 2550 µM)

CN[C@H](CC(C)C)C(=O)N[C@H]1C(=O)N[C@@H](CC(N)=O)C(=O)N[C@H]2C(=O)N[C@H]3C(=O)N[C@H](C(=O)N[C@H](C(=O)O)c4cc(O)cc(O)c4-c4cc3ccc4O)[C@H](O)c3ccc(c(Cl)c3)Oc3cc2cc(c3O[C@@H]2O[C@H](CO)[C@@H](O)[C@H](O)[C@H]2O[C@H]2C[C@](C)(N)[C@H](O)[C@H](C)O2)Oc2ccc(cc2Cl)[C@H]1O [Vancomycin]
MIC (S. aureus ATCC 29213; Staphylococcus aureus, ATCC29213): 0.5 to 2 µg/mL (≈ 0.345 to 1.38 µM)
MIC (S. aureus MRSA COL; Staphylococcus aureus, MRSA): 1 to 2 µg/mL (≈ 0.69 to 1.38 µM)
MIC ([1]; Staphylococcus epidermidis, ATCC12228): 1 to 2 µg/mL (≈ 0.69 to 1.38 µM)
MIC ([2]; Staphylococcus saprophyticus, ATCC15305): 1 µg/mL (≈ 0.69 µM)
MIC (E. faecalis ATCC 29212; Enterococcus faecalis, ATCC29212): 2 µg/mL (≈ 1.38 µM)
MIC (E. faecium ATCC 35667; Enterococcus faecium, ATCC35667): 0.5 µg/mL (≈ 0.345 µM)
MIC (E. faecium VanA): > 128 µg/mL
MBC [4]: 1 µg/mL (≈ 0.69 µM)

Gentamicin
MIC (S. aureus ATCC 29213; S. aureus ATCC 29213): 0.5 to 2 µg/mL
MIC (S. aureus MRSA COL; S. aureus MRSA COL): 0.5 µg/mL
MIC ([1]; S. epidermidis ATCC 12228): 0.06 to 0.25 µg/mL
MIC ([2]; S. saprophyticus ATCC 15305): 0.06 µg/mL
MIC (E. faecalis ATCC 29212; E. faecalis ATCC 29212): 4 to 16 µg/mL
MIC (E. faecium ATCC 35667; E. faecium ATCC 35667): 4 to 16 µg/mL
MIC (E. coli ATCC 25922; E. coli ATCC 25922 (Reference)): 0.5 to 2 µg/mL
MIC (A. baumannii ATCC 19606): 32 µg/mL
MIC [3]: 2 µg/mL
MIC (MRSA strain Sa211c): 1 µg/mL
MIC (MRSA strain Sa212c): 0.25 µg/mL
MIC (MRSA strain Sa220c): 0.5 µg/mL
MIC (MRSA strain Sa224c): 0.25 µg/mL
MIC (MRSA strain Sa228c): 32 µg/mL
MIC (MRSA strain Sa234c): 1 µg/mL
MIC (MRSA strain Sa248c): >128 µg/mL
MIC (MRSA strain Sa249c): >128 µg/mL
MIC (MRSA strain Sa253c): >128 µg/mL
